Laboratory results taken from paper PMC4552634, “A New Set of Chemical Starting Points with Plasmodium falciparum Transmission-Blocking Potential for Antimalarial Drug Discovery” (PLoS ONE, 2015).
Where two headings read alike, the source gives them in different places.

Assays:
[1] = tested on: P. falciparum stage V gametocytes; experiment: Gametocytocidal ATP bioluminescence assay (single point 5 μM and 1 μM, dose-response); format: cell-based, Plasmodium falciparum; settings: for IC90: ATP assay, Fig 7, read-out: IC90 against gametocytes; for Ratio IC50 HepG2/IC50 P. falciparum: IC50 HepG2 divided by IC50 P. falciparum gametocytes
[2] = Cytotoxicity in HepG2 cells (intracellular ATP, ATPlite, 48 h); format: cell-based, human; settings: human, HepG2 cells
[3] = tested on: mature P. falciparum NF54 gametocytes (male gametocyte exflagellation); experiment: Exflagellation assay; format: cell-based, Plasmodium falciparum; settings: for % Exflagellation inh. at the IC90: 48 h, concentration = IC90, Fig 7; for % Inhibition exflagellation: 48 h post-treatment at the IC90 of the ATP assay, normalized to control, Fig 6
Method: The exflagellation assay was performed as described by Delves et al., with some modifications. Briefly, 200 μL samples of mature P. falciparum NF54 gametocytes culture in the presence of the corresponding test compound were incubated at 37°C for 48 h in an atmosphere of 5% CO2, 5% O2, 90% N2 in 1.5 mL microfuge tubes. After the incubation period, cells were settled down and medium was carefully removed. The cell pellets were resuspended in 15 μl of complete ookinete medium (RPMI medium with 25 mM HEPES, 50 mg/L hypoxanthine, 2 g/L sodium bicarbonate, 100 μM xanthurenic acid, 20% human serum) pre-warmed at 37°C. Once parasites were resuspended in ookinete medium, they were introduced in a chamber of a FastRead disposable hemocytometer slide and placed on a horizontal surface at room temperature (21°C), to allow cells to homogeneously settle, forming a tight monolayer.

[4] = tested on: P. falciparum NF54 gametocytes fed to An. stephensi mosquitoes; experiment: Standard membrane feeding assay (SMFA); format: in vivo, Plasmodium falciparum; settings: for Infection Prevalence (%): An. stephensi fed gametocytes treated 48 h at the IC90, Fig 6, one of two independent experiments, control 94%; for % Prevalence of infection / % Reduction oocysts SMFA / Block in Transmission (%) / Reduction in Oocyst (%): gametocytes treated 48 h at the IC90; for % Prevalence of infection / % Reduction oocysts SMFA: Fig 7; for Block in Transmission (%) / Reduction in Oocyst (%): normalized to DMSO control, Fig 6; for Reduction in Oocyst (%): mean oocyst intensity
Method: Gametocyte cultures of the P. falciparum NF54 strain, kindly provided by Robert Sinden (Imperial College London), were induced at 0.5% asexual parasitemia and 4% hematocrit (RBCs from the Spanish Red Cross) at 40 mL final volume in T75 flasks. Gametocyte production media comprised RPMI 1640 (Sigma, #R5886), 30 mM bicarbonate (Sigma-Aldrich, #S5761) and 5 mM hypoxanthine (Gibco, #11067–030). Media were made complete with 5% human serum A^+ (Interstate Blood Bank, USA) and 5% AlbuMAX II (Gibco, #11021–037). Cultures were maintained in a gassed incubator at 37°C with 5% CO2, 5% O2, 90% N2 for 14–17 days post-induction, with daily medium replacement without the addition of fresh RBCs. Percentages of mature gametocytes were assessed by microscopic counts (Leica, DM2000) of Giemsa-stained thin blood smears, and functional microgametocytes were assessed for exflagellation activity at room temperature. To test exflagellation, mature gametocyte cultures were centrifuged at 1800 rpm for one minute. The infected RBC pellet was gently mixed with an equal volume of pre-warmed human serum and introduced onto a slide with a coverslip, followed by incubation at room temperature for 10–15 min. The average exflagellation centers per field at 10X magnification was determined by the exflagellation assay described above. Gametocyte counts and exflagellation assays were performed both before and after gametocyte drug treatment (at the time of SMFA).
Two days before gametocyte treatment with compound, spent media was removed and fresh Gametocyte Treatment Medium consisting of RPMI1640 with L-glutamine and 25 mM HEPES (Gibco, #13018–031), 10 mM glucose (Sigma-Aldrich, #G8270), 20 mM bicarbonate (Sigma-Aldrich, #S5761) and 5 mM hypoxanthine (Gibco, #11067) was added. Media were made complete with 10% of human A^+ serum (Interstate Blood Bank). Five ml of mature gametocyte culture at day 15 post-induction was transferred into each well of a pre-warmed 6-well plate. The selected TCAMS compounds were prepared fresh as a stock solution of 10 mM in 100% of DMSO and added to the mature gametocytes at the concentrations described in Fig 7. Gametocytes were exposed to the compound for a total duration of 48 h. At 24 h post-drug exposure, a fixed volume (3 mL) of spent medium was removed and fresh medium was re-added, accompanied by compound replenishment to obtain the required final concentration. Untreated gametocytes with the same final concentration of DMSO (0.1%) as in treated gametocytes were processed in parallel.
On the day of the feed, cultures were centrifuged at 2500 g for 3 min at 37°C, diluted 1:1 with 100% packed cell volume of fresh RBCs, and finally formulated as artificial mosquito blood meals at 50% hematocrit with pre-warmed human serum. All steps were performed at 37°C. Prepared blood meals were fed in duplicate to 4–6 days old female An. stephensi mosquitoes for 30–40 min via Parafilm membrane attached to glass feeders (Fisher Scientific, #12831283) connected to a 37°C circulating water bath. Fed mosquitoes were maintained in an incubator at 27°C and 75% relative humidity with 12 h light/dark cycles. At 7–8 days post-feeding, mosquitoes with fully developed ovaries were dissected for midguts (Leica, M80) and incubated in 0.2% mercurochrome solution in distilled water for 10–15 min. The total number of oocysts in individual midguts was counted using a light microscope (Leica, DM2000) under a 10X objective (100X magnification). Both infection prevalence (percentage of mosquitoes with one or more oocysts) and mean oocyst intensity of infection were defined in each treatment. The percentage block in transmission and the percentage reduction in mean oocyst intensity were calculated after normalizing to the Control DMSO-treated sample.

[5] = tested on: P. falciparum asexual stages; settings: TCAMS data, cited from earlier work
[6] = tested on: luciferase reaction (BacTiter-Glo); experiment: Interference assay (inhibition of the BacTiter-Glo luciferase reaction); format: biochemical; parameters: concentration or dose not given beside the values; settings: ATP interference assay
Method: To discard possible false-positive results, we performed an interference assay in parallel. […] […]. The ATP solution was made by dissolving ATP powder (ATP standard from the ATPlite 1 step assay kit, reference 6016731, Perkin Elmer) in culture medium. The positive control used was the Luciferase Inhibitor I Calbiochem (Merck, 119113) at 100 μM.

[7] = tested on: HepG2 cells; experiment: Cytotoxicity in HepG2 cells (intracellular ATP, ATPlite, 48 h); format: cell-based, human; settings: IC50 HepG2 divided by IC50 P. falciparum gametocytes
[8] = tested on: P. falciparum stage V gametocytes; experiment: microbe, parasite or virus in culture; parameters: BacTiter-Glo ATP luminescence viability of purified stage V gametocytes in 384-well plates, per cent inhibition versus DMSO; settings: Plasmodium falciparum, 48 h, read-out: % Inhibition
[9] = Plasmodium falciparum, P. falciparum gametocytes, average, read-out: IC50 Pf Gametocytes average, IC50 (µM) average
[10] = IC50 per ratio column head, unit inferred, read-out: Cytotoxicity in HepG2
[11] = P. falciparum asexual stages, read-out: IC50 (µM) Pf asexual stages
[12] = asexual stages, read-out: IC50 asexual
[13] = Plasmodium falciparum, sexual stages (gametocytes), dose-response, read-out: IC50 sexual
[14] = HepG2, 48 h exposure, intracellular ATP, read-out: IC50 (μM) Cytotoxicity HepG2
[15] = sexual stages (gametocytes), dose-response, read-out: IC50 sexual

Row | Compound | % Control luminiscence [6] [%] | IC90 ([1]; Plasmodium falciparum) [nM] | IC50 [1, 9] [µM] | IC50 at 48 h [2, 10] [µM] | % Exflagellation inh. at the IC90 [3] [%] | % Inhibition exflagellation [3] [%] | Infection Prevalence (%) [4] [%] | % Prevalence of infection [4] [%] | % Reduction oocysts SMFA [4] [%] | Block in Transmission (%) [4] [%] | Reduction in Oocyst (%) [4] [%] | IC50 [5, 11] [µM] | IC50 [5, 12] [µM] | IC50 [1, 13] [µM] | IC50 at 48 h [2, 14] [µM] | Ratio IC50 HepG2/IC50 P. falciparum [1] | IC50 [1, 15] [µM] | Ratio IC50 HepG2/IC50 P. falciparum [7] | inhibition at 5 µM [8] [%]
1 | CNC(=S)NN=C(C)c1ccccn1 [TCMDC-123475] | – | 10000 | 1.17 | > 25 | 97.7 | 97.7 | 0 | 0 | 100 | 100 | 100 | 0.27 | 0.272 | – | – | – | – | – | –
2 | Cc1c(Cl)cccc1NC(=S)NN=Cc1ccccn1 [TCMDC-125487] | – | 2000 | 0.27 | > 25 | 98.3 | 98.30 | 0 | 1 | 100 | 100 | 100 | 0.6 | 0.603 | – | – | – | – | – | –
3 | CCC1CN2CCc3cc(OC)c(OC)cc3C2CC1CC1NCCc2cc(OC)c(OC)cc21 (stereo not shown) [TCMDC-125849] | – | 2000 | – | 17.7 | 99.2 | – | 3 | 3 | 100 | 97 | 100 | 0.14 | 0.145 | 0.117 | 18 | – | – | – | –
4 | c1ccc2c(NCCCCCCNc3ccnc4ccccc34)ccnc2c1 [TCMDC-137913] | 100 | – | 0.96 | 16.4 | – | – | – | – | – | – | – | – | 0.191 | – | – | 17 | 0.963 | 17 | –
5 | COc1ccc2nc3cc(Cl)ccc3c(NCCCCNc3c4ccc(Cl)cc4nc4ccc(OC)cc34)c2c1 [TCMDC-138218] | 100 | – | 0.2 | 14.5 | – | – | – | – | – | – | – | – | 0.16 | – | – | 72 | – | 72 | –
6 | COc1cc2nc(N3CCC(CCCC4CCNCC4)CC3)nc(NCc3ccccn3)c2cc1OC [TCMDC-138494] | 100 | – | 0.4 | 10.6 | – | – | – | – | – | – | – | – | 0.757 | – | – | 26 | – | 26 | –
7 | COc1cc2nc(NCC3CCN(c4nc(N)c5cc(OC)c(OC)cc5n4)CC3)nc(N)c2cc1OC [TCMDC-138723] | 98 | – | 1.42 | > 25 | – | – | – | – | – | – | – | – | 0.776 | – | – | >18 | – | >18 | –
8 | O=c1c(Br)ccccc1Br [TCMDC-142246] | 100 | – | 0.21 | 12.6 | – | – | – | – | – | – | – | 0.79 | 0.795 | 0.207 | 13 | 61 | – | 61 | 103

Continued, in another order:

Row | % Control luminiscence [6] [%] | Compound | IC90 ([1]; Plasmodium falciparum) [nM] | IC50 [1, 9] [µM] | IC50 at 48 h [2, 10] [µM] | % Exflagellation inh. at the IC90 [3] [%] | % Inhibition exflagellation [3] [%] | Infection Prevalence (%) [4] [%] | % Prevalence of infection [4] [%] | % Reduction oocysts SMFA [4] [%] | Block in Transmission (%) [4] [%] | Reduction in Oocyst (%) [4] [%] | IC50 [5, 11] [µM] | IC50 [5, 12] [µM] | IC50 [1, 13] [µM] | IC50 at 48 h [2, 14] [µM] | Ratio IC50 HepG2/IC50 P. falciparum [1] | IC50 [1, 15] [µM] | Ratio IC50 HepG2/IC50 P. falciparum [7] | inhibition at 5 µM [8] [%]
9 | 100 | COc1ccc(COc2cc(NCCCN)nc3ccccc23)cc1 [TCMDC-139286] | – | 0.56 | 14 | – | – | – | – | – | – | – | 1.28 | 1.28 | – | 14 | 25 | – | 25 | –
10 | 93 | c1cc(Nc2nc(-c3ccc(-c4csc(Nc5ccncc5)n4)cc3)cs2)ccn1 [TCMDC-139725] | – | 0.26 | 17.3 | – | – | – | – | – | – | – | – | 0.117 | – | – | 67 | – | 67 | –
11 | 100 | CCCCCCCN1CC[C@@H](CCCc2ccnc3ccc(OCCCCNC(N)=NO)cc23)[C@@H](CC)C1 [TCMDC-139839] | – | 0.47 | 17.2 | – | – | – | – | – | – | – | – | 0.952 | – | – | 36 | 0.473 | 36 | –
12 | 100 | CC(C)CNCc1cccc(-c2ccc(CN(CCCN3CCN(C)CC3)C(=O)CCC3CCCC3)cc2)c1 [TCMDC-140558] | – | 0.7 | > 25 | – | – | – | – | – | – | – | – | 0.877 | – | – | >36 | – | >36 | –
13 | 100 | CCN(CC)CCN(Cc1ccc(-c2ccc(C(F)(F)F)cc2)cc1)C(=O)Cn1cc(Cc2cnn(C)c2)c(=O)nc1/C=C/c1cccc(F)c1F [TCMDC-140964] | – | 0.17 | 14.4 | – | – | – | – | – | – | – | – | 0.957 | – | – | 83 | 0.173 | 83 | –
14 | 100 | CN(C)CCCNc1nccc(N(C)c2ccc(NC(=O)Nc3cc(C(F)(F)F)ccc3F)cc2)n1 [TCMDC-141633] | – | 1 | 17.3 | – | – | – | – | – | – | – | – | 0.98 | – | – | 17 | 0.997 | 17 | –
